Measurements taken from patent US5132291A, “Antivirals and methods for increasing the antiviral activity of AZT” (priority 1989, dated 1992).
Read-outs that look alike come from different tables or passages of the source.

Assays:
SAH hydrolase = SAH hydrolase inhibition; format: biochemical
Protocol: The effect of incubation time and AICA riboside concentration on SAH hydrolase activity was determined as follows. Five samples of SAH hydrolase were incubated at the following AICA riboside concentrations: 0, 10, 25, 50 and 100 μM. The incubation buffer consisted of 25 mM potassium phosphate pH 7.0, 1 mM EDTA, 1 mM, DTT and 0.04% BSA. The total enzyme added to incubation mixture was 10 μg. At indicated times, 10 μl of sample was withdrawn and assayed in the following assay system: 25 mM potassium phosphate, pH 7.0, 40 mM DL-Homocysteine, 1 mM EDTA, 1 mM DTT, 10 μM EHNA, 0.1% BSA and 10 μM U-^14 C Adenosine (590 m Ci/mmole). The reaction was stopped by adding 15 μl of 30% TCA. The samples were then centrifuged and 15 μl were removed and applied to Kodak cellulose 13254 TLC plates along with SAH and adenosine markers. The plates were then developed in a solvent system of 1-butanol:methanol:H2 O:ammonium hydroxide (60:20:20:2). The adenosine and S-adenosyl homocysteine were visualized under UV light and the spots were cut from the plate. Radioactivity of the spots was determined by liquid scintillation spectrometry. From a plot of the reciprocal of Kinactivation vs. 1/AICA riboside concentration the values of Ki (X-intercept) and Kmax (Y-intercept), were determined (FIG. 10(b)).

HIV-1 = assay: HIV syncitial forming assay using CEM-SS cells; format: cell-based; conditions: AZT 0.01 μM and 0.1 μM, 24 hour preincubation before HIV infection
Excerpt: The following cytomorphologic infectivity bioassay was used to characterize antiviral activity against HIV-1. In the following assay a single infectious unit of virus infects a single cell and initiates a focal expression of that infection, i.e., a syncitium. Since a single infectious unit leads to a discrete response, a linear relationship exists between the number of virally-induced cytopathic effects and the first order of virus concentration. Application of this procedure in assays for virus inactivation allows for evaluation of the candidate antiviral agent.
CEM-SS (syncitium-sensitive Leu 3a-positive CEM cell line) cells were grown in RPMI 1640 cell culture media (Irvine Scientific) supplemented with 10% heat-inactivated fetal bovine serum (Gemini Bioproducts) and 1% […] glutamine (Gibco). Log-phase cells were split 1:2 with the growth medium the day prior to setting up the assay to standardize plating conditions and to assure a population of logarithmically growing cells. Ninety-six-well plates (Costar) were pretreated with 50 μl of 50 μg/ml poly-1-lysine (MW=295,000 Sigma) "PLL") and were left at room temperature for 60 minutes. Residual PLL was removed with two washes of PBS. The plates were stored in the incubator until used.
On the day of the assay, the cells were counted and enough cells were harvested to plate each well with 5.0×10^4 cells per well in a volume of 200 μl (or 20 ml of […] was appropriate for each 96-well microtitre plate).
The cells were plated out on the PLL pre-treated microtitre plates at 5.0×10^4 cells/well in a volume of 200 μl. After allowing attachment for 30 minutes at 37° C. and 5% CO2, the antiviral agent(s) were added in the noted amounts and the treated plates were pre-incubated for 24 hours.
The HIV-1 virus stock (isolated from infected H-9 cells) was diluted in growth medium to yield 100 SFU (syncytial-forming units) per well. Diluted HIV-1 virus, 20 μl, was added to appropriate wells. All the plates were then incubated for 5 days at 37° C. and 5% CO2. On day 5 post-infection, the cells were given a 100 μl media change. […]

[1] = tested on: BAG vector pseudotyped by MA (amphotrophic murine leukemia virus); assay: U937/BAG+MA colony resistance assay titered on 208F rat fibroblasts; format: cell-based; conditions: 0.01 μM AZT
Protocol: A second, similar assay system was utilized in which a human macrophage line (U937) carrying the BAG retroviral vector construct (having neomycin resistance and beta-galactosidase marker genes), Cepko, PNAS, Vol. 84, p. 156-160 (1987), was infected with MA (amphotrophic MLV [murine leukemia virus]). MA was used to pseudotype the replication-defective BAG vector, which was then titered on 208F cells. According to this assay, the results of which are shown in FIG. 1c, 0.01 μM AZT and 500 μM AICA riboside were both effective against murine retroviruses. […]
(§1) In this colony-forming bioassay for the characterization of antiviral compounds against retroviruses, a replication-defective retroviral vector construct having the ability to confer neomycin-resistance (U937/BAG or N2) is psuedotyped, infects a single cell, and under neomycin selection, allows the recipient cell to form a colony. Since each infection yields a neomycin-resistant cell capable of producing a discrete group of cells, colonies can be counted, resulting in a linear relationship between the number of colonies and the first order of virus concentration. […]
After drying, the plates were stained with 2 ml of 1:20 Glemsa (Sigma) for 1 hour. […] All colonies containing 50 or more cells were scored.

[2] = tested on: peripheral blood macrophages; conditions: cited from earlier work
[3] = tested on: N2 virus (replication-defective murine leukemia virus construct); assay: N2 colony resistance assay on 208F rat fibroblasts; format: cell-based; conditions: 0.01 μM AZT compared with 500 μM AICA riboside
Excerpt: As described in Example Two, several retroviral assay systems were utilized to test the antiviral activity of various purine nucleoside compounds. One assay system employed a replication-defective murine leukemia virus construct "N2") containing a selectable marker (the neomycin resistance gene). The N2 virus construct is present in the producer or "helper" cell line also called N2 which contains a second retroviral construct that encodes for the production of the retrovirus proteins necessary for packaging and which can, therefore, psuedotype the N2 vector into an infective amphotrophic murine retrovirus. […]
as §1
Neomycin selection (500 μg/ml) was begun the next day and continued for eight days post-infection, changing the media three times per week. […] All colonies with 50 or more aggregate cells were counted.

[4] = cited from earlier work
HIV = HIV syncitial forming assay using SupT-1 cells; format: cell-based
Protocol: The assay was performed following the procedure described in Example Three except that SupT-1 cells were used. Using the SupT-1 cells, the medium was not changed at day 5 post-infection and the syncitia were counted at day 5 post-infection at 40X. The results are plotted in FIGS. 5, 6(b), and 7.

AIDS virus = conditions: cited from earlier work

In the case of `NC(=O)c1nc[nH]c1N` [AICA], the “inhibition of SAH hydrolase” value (SAH hydrolase) was “very potent inhibitors” and the “inhibition of SAH hydrolase” value (SAH hydrolase; even at a concentration as low as 10 μM) was “potent inhibitors”.
In the case of `Cc1cn([C@H]2C[C@H](N=[N+]=[N-])[C@@H](CO)O2)c(=O)[nH]c1=O` [AZT, 3'azido-3'deoxythymidine], the “antiviral effect (number of syncitia)” value (HIV-1) is given as “antiviral effects”, the “effectiveness against murine retroviruses” value [1] is given as “effective” and the “accumulation of AZT nucleotides in macrophages as compared to CEM” value [2] is given as “nine-fold lower”. For the same molecule, the “antiviral activity (neomycin-resistant colonies)” value [3] was “somewhat better antiviral activity than 500 μM AICA riboside”, the “patients with macrocytic anemia” value ([4]; CD4 (T4) lymphocyte count ≤200/mm^3) was “up to 45%” and the patients with granulocytopenia ([4]; CD4 count >200/mm^3) was “up to 40%”. The patients with granulocytopenia ([4]; CD4 count ≤200/mm^3) was “up to 55%”, the “effectiveness against the AIDS virus (prevention of syncitial formation)” value (HIV; AZT 0.01 μM-1 μM, 7200 min) was “less than 100%” and the inhibition at 10 µM (HIV; Human immunodeficiency virus 1, SUP-T1, 120 h, read-out: effectiveness against the AIDS virus (prevention of syncitial formation)) was 100%.
For `NC(=O)c1ncn([C@@H]2O[C@H](CO)[C@@H](O)[C@H]2O)n1` [ribavirin], the “decrease of phosphorylation of AZT to the mono-, di-, and triphosphate forms” value (AIDS virus; AIDS infected and uninfected cells) is given as “approximately a factor of ten” and the “effect on effectiveness of AZT against the AIDS virus” value (AIDS virus; peripheral blood lymphocytes and H9 cells) is given as “reduced the effectiveness of AZT”.
